Laboratory results published in patent US4223137A, “Carbostyril derivatives and process for preparing the same” (Otsuka Pharmaceutical Co., Ltd., priority 1976, dated 1980).
Where “and” joins values, the source holds several entries; their conditions need not be identical. Equal values may be shown once. Where a name gives a salt, the structure may show the parent alone. Read-outs that look alike come from different tables or passages of the source.

How the values were obtained:
[1] = Acute toxicity by intravenous administration; conditions: rat, in vivo, i.v., male rats (dd strain, 18 to 22 g), fasted 12 hours, read-out: LD50 (50% lethal dose)
Protocol: Further, the acute toxicity by intravenous administration was determined with respect to the test compounds shown in Table 2 below using 5 to 6 groups each containing 10 male rats (dd strain; body weight: 18 to 22 g) which had been fasted for 12 hours prior to the test. The LD50 (50% lethal dose) results are as follows.

β-adrenoreceptor [2] = test: Persistence (duration) of inhibition of histamine-induced bronchospasm, anesthetized dogs; format: in vivo, dog; conditions: FIGURE, i.v. 1 μg/kg, versus Compound (2)
Protocol: The stimulating activity of the compounds of this invention on β-adrenoreceptor was determined as follows: Male hydrid adult dogs, weighing 10 to 15 kg, were anesthesized with sodium pentobartital administered intravenously at a level of 30 mg/kg of body weight. Each of the anesthesized dogs was secured on its back and a cannula was inserted into the trachea. Artificial respiration was conducted using a device according to the Konzett-Rossler method (Konzett H. & Rossler R., "Versuchsanordnug zu Untersuchungen an der Bronchial Moskolatur", Arch. Exp. Path., […], 195, 71-74, 27-40 (1940). The volume of the air which overflowed at the time of inhalation was measured through a pneumotachometer to determine the bronchial resistance and the values obtained were recorded on a polygraph. […] Sodium pentobartital was infused during the procedure at a dosage level of 4 mg/kg of body weight/hr using an automatic injector in order to inhibit spontaneous respiration and to maintain the anesthetic condition constant over the test period. The persistance time was determined by administering to a subject a test compound in such a dose that a histamine-induced bronchospasm is inhibited completely (100%), in the same manner as described above and observing the persistance of the activity of the test compound with the lapse of time.

β-adrenoreceptor [3] = test: Heart rate (pulse) increase, i.v., anesthetized dogs; format: in vivo, dog (male hybrid adult dogs); conditions: for Heart Rate (HR) ED25 beats/min, Compound: pulse increase; for Heart Rate (HR) Relative Potency: ED25 compared to isoproterenol as standard compound
Protocol: (§1) The stimulating activity of the compounds of this invention on β-adrenoreceptor was determined as follows: Male hydrid adult dogs, weighing 10 to 15 kg, were anesthesized with sodium pentobartital administered intravenously at a level of 30 mg/kg of body weight. Each of the anesthesized dogs was secured on its back and a cannula was inserted into the trachea.
(§2) In the above procedure, histamine was employed as a bronchoconstrictor at a dosage level of 10 μg/kg of body weight, and an aqueous solution containing each of the test compounds and controls shown in Table 1 below was then administered to each of the anesthesized dogs through the femoral vein at the various dosage levels as shown in Table 1 below 1 minute before the administration of the histamine. Sodium pentobartital was infused during the procedure at a dosage level of 4 mg/kg of body weight/hr using an automatic injector in order to inhibit spontaneous respiration and to maintain the anesthetic condition constant over the test period.
(§3) ED50 values were calculated using a Dose Response curve. At the same time the pulse was measured through a transducer and the value was recorded on a polygraph.

β2-receptor = test: Separation of bronchial resistance effect from heart rate effect (β2 selectivity), anesthetized dogs; format: in vivo, dog (male hybrid adult dogs); conditions: i.v.
Protocol: The stimulating activity of the compounds of this invention on β-adrenoreceptor was determined as follows: Male hydrid adult dogs, weighing 10 to 15 kg, were anesthesized with sodium pentobartital administered intravenously at a level of 30 mg/kg of body weight. Each of the anesthesized dogs was secured on its back and a cannula was inserted into the trachea. Artificial respiration was conducted using a device according to the Konzett-Rossler method (Konzett H. & Rossler R., "Versuchsanordnug zu Untersuchungen an der Bronchial Moskolatur", Arch. Exp. Path., Pharmack, 195, 71-74, 27-40 (1940). The volume of the air which overflowed at the time of inhalation was measured through a pneumotachometer to determine the bronchial resistance and the values obtained were recorded on a polygraph.
as §2, §3

β-adrenoreceptor [4] = molecular target: T1, β-adrenoreceptor (Canis lupus familiaris, UniProt P54833); test: Inhibition of histamine-induced bronchial resistance increase (bronchospasm), i.v., Konzett-Rossler method, anesthetized dogs; format: in vivo, dog (male hybrid adult dogs); conditions: for Bronchial Resistance (BR) Relative Potency: ED50 compared to isoproterenol as standard compound; for ED50: dog, iv
T1 construct: from tissue; host or cells: airways of anesthetized dogs, in vivo
T1 sequence (P54833 whole entry): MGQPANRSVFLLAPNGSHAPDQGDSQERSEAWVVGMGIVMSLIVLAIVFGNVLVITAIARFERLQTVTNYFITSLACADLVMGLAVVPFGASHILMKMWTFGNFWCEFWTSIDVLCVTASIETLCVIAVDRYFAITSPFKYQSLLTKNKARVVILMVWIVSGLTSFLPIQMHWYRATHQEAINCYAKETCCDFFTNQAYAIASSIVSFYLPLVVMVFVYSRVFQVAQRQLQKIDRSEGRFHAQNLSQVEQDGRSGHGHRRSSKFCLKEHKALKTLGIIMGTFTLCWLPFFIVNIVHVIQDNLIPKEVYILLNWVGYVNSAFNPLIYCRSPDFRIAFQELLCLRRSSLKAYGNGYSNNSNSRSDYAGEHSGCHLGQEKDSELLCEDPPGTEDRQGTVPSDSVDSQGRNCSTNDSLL
Protocol: as §1, §2, §3

[5] = read-out: Bronchial Resistance (BR) ED50, Compound
[6] = i.v. 1 minute before histamine 10 μg/kg, anesthetized dogs, read-out: Bronchial Resistance (BR) ED50, Compound

Row | Structure (SMILES) | LD50 [1] | duration of β-stimulation activity on histamine-induced bronchospasm (β-adrenoreceptor [2]) | Heart Rate (HR) ED25 beats/min, Compound (β-adrenoreceptor [3]; i.v., anesthetized dogs) | Heart Rate (HR) Relative Potency (β-adrenoreceptor [3]) | Separation Ratio HR(Relative Potency)/BR(Relative Potency) (β2-receptor) | Bronchial Resistance (BR) Relative Potency (β-adrenoreceptor [4]) | ED50 (β-adrenoreceptor [4]; [5]) | ED50 (β-adrenoreceptor [4]; [6]) | Heart Rate (HR) ED25 beats/min, Isoproterenol (β-adrenoreceptor [3]; isoproterenol as standard compound for the compound of the same line, i.v., anesthetized dogs) | ED50 (β-adrenoreceptor [4]; read-out: Bronchial Resistance (BR) ED50, Isoproterenol, isoproterenol as standard compound for the compound of the same line, i.v., anesthetized dogs) | Bronchial Resistance (BR) ED50, Compound (β-adrenoreceptor [4]; i.v. 1 minute before histamine 10 μg/kg, anesthetized dogs)
1 | CCC(NC(C)C)C(OC(C)=O)c1ccc(OC(C)=O)c2[nH]c(=O)ccc12.Cl (stereo not shown) [(3), 8-acetoxy-5-(1-acetoxy-2-isopropylaminobutyl)carbostyril hydrochloride] | 112000 µg/kg | exhibit a long-lasting β-stimulation activity on histamine-induced bronchospasm as compared with that of the comparative compound | 4.5 µg/kg | 64.4 | 11.0 | 5.85 | 0.82 µg/kg |  |  |  | 
2 | CCNC(CC)C(O)c1ccc(OC(C)=O)c2[nH]c(=O)ccc12.Cl (stereo not shown) [(4), 8-acetoxy-5-(1-hydroxy-2-ethylaminobutyl)carbostyril hydrochloride] | 105000 µg/kg | exhibit a long-lasting β-stimulation activity on histamine-induced bronchospasm as compared with that of the comparative compound | 3.6 µg/kg | 45.0 | 11.8 | 3.81 | 0.61 µg/kg |  |  |  | 
3 | CCNC(CC)C(O)c1ccc(OC(=O)CC(C)C2CCCCC2)c2[nH]c(=O)ccc12.Cl (stereo not shown) [(5), 8-(3-cyclohexylbutyryloxy)-5-(1-hydroxy-2-ethylaminobutyl)carbostyril hydrochloride] |  |  | 6.5 µg/kg | 65.4 | 12.7 | 5.15 | 0.67 µg/kg |  |  |  | 
4 | CCC(NC(C)C)C(O)c1ccc(OC(=O)CC(C)(C)C)c2[nH]c(=O)ccc12 (stereo not shown) [(6)] | 107000 µg/kg |  | 3.2 µg/kg | 46.1 | 13.1 | 3.52 |  | 0.42 µg/kg |  |  | 
5 | CCC(NC(C)C)C(O)c1ccc(OC(=O)Cc2ccccc2)c2[nH]c(=O)ccc12.Cl (stereo not shown) [(7), 8-phenylacetoxy-5-(1-hydroxy-2-isopropylaminobutyl)carbostyril hydrochloride] |  |  | 1.39 µg/kg |  |  |  | 0.17 µg/kg |  |  |  | 
6 | COc1ccc(CCNCC(OC(=O)C2CC2)c2ccc(OC(=O)C3CC3)c3[nH]c(=O)ccc23)cc1OC (stereo not shown) [(8), 8-cyclopropylcarbonyloxy)-5-[1-cyclopropylcarbonyloxy-2-(3,4-dimethoxyphenethylamino)ethyl]carbostyril hydrochloride] | 123000 µg/kg |  | 4.81 µg/kg | 68.7 | 14.8 | 4.64 |  | 0.51 µg/kg |  |  | 
7 | CCNC(CC)C(O)c1ccc(OC(=O)c2ccc(C)cc2)c2[nH]c(=O)ccc12.Cl (stereo not shown) [(9), 8-(4-methylbenzoyloxy)-5-(1-hydroxy-2-ethylaminobutyl)carbostyril hydrochloride] | 132000 µg/kg |  | 1.7 µg/kg | 15.5 | 14.5 | 1.06 | 0.16 µg/kg |  |  |  | 
8 | CCC(NC(C)C)C(O)c1ccc(OC(=O)C(C)C)c2nc(OC(=O)C(C)C)ccc12.Cl (stereo not shown) [(10), 2,8-diisobutyryloxy-5-(1-hydroxy-2-isopropylaminobutyl)quinoline hydrochloride] |  | exhibit a long-lasting β-stimulation activity on histamine-induced bronchospasm as compared with that of the comparative compound | 5.6 µg/kg | 56.4 | 9.5 | 5.94 | 0.95 µg/kg |  |  |  | 
9 | CCC(NCc1ccccc1)C(O)c1ccc(OC(=O)c2ccc(Cl)cc2)c2[nH]c(=O)ccc12.Cl (stereo not shown) [(11), 8-(4-chlorobenzoyloxy)-5-(1-hydroxy-2-benzylaminobutyl)carbostyril hydrochloride] |  |  | 4.2 µg/kg | 46.7 | 7.2 | 6.50 | 0.91 µg/kg |  |  |  | 
10 | CCC(NC(C)C)C(OC(=O)c1ccc(C)cc1)c1ccc(OC(=O)c2ccc(C)cc2)c2c1CCC(=O)N2 (stereo not shown) [(12), 8-(4-methylbenzoyloxy)-5-[(1-(4-methylbenzoyloxy)-2-isopropylaminobutyl]-3,4-dihydrocarbostyril hydrochloride] | 153000 µg/kg |  | 8.3 µg/kg | 75.5 | 10.3 | 7.30 |  | 0.73 µg/kg |  |  | 
11 | CCC(NC(C)C)C(OC(=O)C1CCCCC1)c1ccc(OC(=O)c2ccc(C)cc2)c2[nH]c(=O)ccc12.Cl (stereo not shown) [(13), 8-(4-methylbenzoyloxy)-5-(1-cyclohexylcarbonyloxy-2-isopropylaminobutyl)carbostyril hydrochloride] | 147000 µg/kg |  | 6.02 µg/kg | 66.9 | 11.3 | 5.92 | 0.71 µg/kg |  |  |  | 
12 | CC(C)C(=O)Oc1ccc(C(O)C(C)NC(C)(C)C)c2ccc(=O)[nH]c12 (stereo not shown) [(14), 8-isobutyryloxy-5-(1-hydroxy-2-tert-butylaminopropyl)carbostyril] |  |  | 3.86 µg/kg | 48.3 | 12.3 | 3.92 |  | 0.47 µg/kg |  |  | 
13 | CCNC(CC)C(O)c1ccc(O)c2[nH]c(=O)ccc12.Cl (stereo not shown) [Compound (2), 8-hydroxy-5-(1-hydroxy-2-ethylaminobutyl)carbostyril hydrochloride, reference compound] |  |  | 3.6 µg/kg | 40.0 | 11.5 | 3.47 | 0.66 µg/kg |  |  |  | 
14 | CC(C)NCC(O)c1ccc(O)c(O)c1 (stereo not shown) [Isoproterenol, reference compound] |  |  |  |  |  |  |  |  | 0.07 µg/kg and 0.10 µg/kg | 0.19 µg/kg | 
15 | CC(C)(C)NCC(O)c1ccc(O)c(CO)c1 (stereo not shown) [Salubutamol (1), Salbutamol, reference compound] |  |  | 2.8 µg/kg | 45.9 | 7.52 | 6.1 |  |  |  |  | 0.52 µg/kg
